Measurements published in ChEMBL document CHEMBL1201862, “PubChem BioAssay data set” (2004).
The source made the active and inactive calls.

Experiments:
[1] = growth suppression of PTEN-null colon cells, dose response, cell-based, HCT116 PTEN knockout (AID 1047); format: functional;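 also: HCT116 colon tumor cells with PTEN knocked out; cells exposed to compound for 60 hours before readout; potency for loss of cell viability measured by luminescence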
[2] = growth suppression of beta-catenin-knockout colon cells, dose response, cell-based, HCT116, human colon tumor (AID 1045); format: functional;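 also: HCT116 colon tumor cells with beta catenin knocked out; cells exposed to compound for 60 hours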
Fatty acid synthase [3] = target: T1, Fatty acid synthase (Homo sapiens, UniProt P49327); assay: FAS thioesterase domain inhibitors, dose response, biochemical, endpoint fluorescence intensity, uHTS hits (AID 624327); format: functional;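 also: fluorescence from hydrolysis of an O-methyl fluorescein acyl ester substrate by the enzyme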
T1 sequence (P49327 whole entry, the tested form may be a part): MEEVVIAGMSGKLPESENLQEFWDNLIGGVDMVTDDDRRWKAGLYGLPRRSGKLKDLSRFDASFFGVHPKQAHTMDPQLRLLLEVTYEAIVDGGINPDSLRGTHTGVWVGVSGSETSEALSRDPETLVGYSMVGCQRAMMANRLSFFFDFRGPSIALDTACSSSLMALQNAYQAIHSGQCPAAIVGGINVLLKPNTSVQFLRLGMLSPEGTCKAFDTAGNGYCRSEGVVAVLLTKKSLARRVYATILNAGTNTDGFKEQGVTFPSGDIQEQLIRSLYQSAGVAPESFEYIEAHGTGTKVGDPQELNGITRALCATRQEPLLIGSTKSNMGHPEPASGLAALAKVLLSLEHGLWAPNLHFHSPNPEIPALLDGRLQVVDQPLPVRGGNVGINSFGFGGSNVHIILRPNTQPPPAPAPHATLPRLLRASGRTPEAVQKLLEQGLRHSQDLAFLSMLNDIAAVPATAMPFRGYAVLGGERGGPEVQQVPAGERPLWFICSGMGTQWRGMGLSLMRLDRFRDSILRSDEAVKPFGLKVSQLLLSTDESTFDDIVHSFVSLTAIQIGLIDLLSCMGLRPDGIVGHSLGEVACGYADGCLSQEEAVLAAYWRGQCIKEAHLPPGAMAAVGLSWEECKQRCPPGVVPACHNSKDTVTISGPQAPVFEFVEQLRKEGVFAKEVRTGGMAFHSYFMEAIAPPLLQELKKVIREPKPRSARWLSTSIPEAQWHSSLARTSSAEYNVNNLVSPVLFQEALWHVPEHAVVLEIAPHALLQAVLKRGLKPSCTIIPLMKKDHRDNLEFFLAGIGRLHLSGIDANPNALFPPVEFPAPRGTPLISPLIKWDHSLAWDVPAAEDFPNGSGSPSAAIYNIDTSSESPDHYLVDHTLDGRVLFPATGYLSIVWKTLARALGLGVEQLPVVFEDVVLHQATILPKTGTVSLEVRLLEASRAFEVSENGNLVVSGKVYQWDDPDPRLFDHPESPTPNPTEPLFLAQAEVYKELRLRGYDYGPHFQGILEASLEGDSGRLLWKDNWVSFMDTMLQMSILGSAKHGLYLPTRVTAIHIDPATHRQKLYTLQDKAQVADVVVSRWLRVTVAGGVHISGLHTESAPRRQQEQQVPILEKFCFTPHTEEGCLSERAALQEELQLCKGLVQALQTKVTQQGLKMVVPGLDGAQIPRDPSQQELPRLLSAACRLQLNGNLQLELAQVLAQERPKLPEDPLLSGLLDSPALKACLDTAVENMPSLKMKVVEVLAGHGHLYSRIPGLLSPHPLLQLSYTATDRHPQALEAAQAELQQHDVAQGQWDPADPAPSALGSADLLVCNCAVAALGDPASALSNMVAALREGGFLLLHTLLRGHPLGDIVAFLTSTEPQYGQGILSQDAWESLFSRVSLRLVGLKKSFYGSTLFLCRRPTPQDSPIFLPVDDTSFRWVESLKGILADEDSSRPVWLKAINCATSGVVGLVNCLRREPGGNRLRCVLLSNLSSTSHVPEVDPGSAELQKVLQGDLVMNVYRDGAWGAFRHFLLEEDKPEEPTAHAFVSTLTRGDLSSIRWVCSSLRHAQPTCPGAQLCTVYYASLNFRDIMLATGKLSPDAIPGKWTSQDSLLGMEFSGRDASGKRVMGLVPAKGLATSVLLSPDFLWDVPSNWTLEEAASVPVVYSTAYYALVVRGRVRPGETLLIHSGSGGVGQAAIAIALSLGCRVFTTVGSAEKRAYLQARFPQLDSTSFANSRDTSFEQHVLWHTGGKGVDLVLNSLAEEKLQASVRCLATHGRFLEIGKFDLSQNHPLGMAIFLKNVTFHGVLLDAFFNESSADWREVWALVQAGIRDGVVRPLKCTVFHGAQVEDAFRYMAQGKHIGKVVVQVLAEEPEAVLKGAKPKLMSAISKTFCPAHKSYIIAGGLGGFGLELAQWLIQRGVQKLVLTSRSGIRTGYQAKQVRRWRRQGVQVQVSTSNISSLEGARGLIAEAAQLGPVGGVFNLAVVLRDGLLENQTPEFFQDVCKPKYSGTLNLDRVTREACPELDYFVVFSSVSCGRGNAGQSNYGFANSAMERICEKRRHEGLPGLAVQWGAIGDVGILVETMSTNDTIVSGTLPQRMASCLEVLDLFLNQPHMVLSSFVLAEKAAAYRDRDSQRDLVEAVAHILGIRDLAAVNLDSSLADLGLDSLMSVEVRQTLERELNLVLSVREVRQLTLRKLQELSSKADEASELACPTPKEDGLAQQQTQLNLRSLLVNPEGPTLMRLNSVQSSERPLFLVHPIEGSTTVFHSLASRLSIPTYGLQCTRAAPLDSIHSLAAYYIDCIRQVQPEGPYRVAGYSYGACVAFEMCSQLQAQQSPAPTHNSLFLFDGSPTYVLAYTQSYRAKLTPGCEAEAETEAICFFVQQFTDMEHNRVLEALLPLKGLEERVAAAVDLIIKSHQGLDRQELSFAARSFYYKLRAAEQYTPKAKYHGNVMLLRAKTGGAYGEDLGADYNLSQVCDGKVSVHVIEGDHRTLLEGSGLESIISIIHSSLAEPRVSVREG

Fatty acid synthase [4] = target: T1, Fatty acid synthase; assay: FAS thioesterase domain inhibitors, dose response, biochemical, kinetic fluorescence intensity (AID 624326); format: functional;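 also: rate of fluorescence rise from hydrolysis of a fluorogenic O-methyl fluorescein ester substrate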
HEK293 = assay: inhibitors of LMP1-driven NF-kB reporter, dose response, cell-based, HEK293, luciferase, cherry-pick (AID 588343); format: functional; conditions: Homo sapiens
[5] = target: Glyceraldehyde-3-phosphate dehydrogenase (Homo sapiens, UniProt P04406)
Sequence of Glyceraldehyde-3-phosphate dehydrogenase (P04406 whole entry): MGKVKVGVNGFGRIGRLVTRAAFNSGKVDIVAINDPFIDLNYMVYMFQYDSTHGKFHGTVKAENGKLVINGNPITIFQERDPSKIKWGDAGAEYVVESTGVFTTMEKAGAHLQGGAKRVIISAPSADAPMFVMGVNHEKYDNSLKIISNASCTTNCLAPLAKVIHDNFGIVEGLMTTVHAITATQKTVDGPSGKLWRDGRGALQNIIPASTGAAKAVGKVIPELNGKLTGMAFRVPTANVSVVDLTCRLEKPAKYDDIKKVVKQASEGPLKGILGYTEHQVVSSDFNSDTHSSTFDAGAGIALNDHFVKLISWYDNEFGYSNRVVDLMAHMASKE

[6] = target: Peroxisome proliferator-activated receptor gamma/Nuclear receptor coactivator 2 (Homo sapiens, UniProt P37231); format: functional;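 also: agonist potency for raising coactivator recruitment to the receptor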
[7] = target: Peroxisome proliferator-activated receptor gamma/Nuclear receptor coactivator 1 (Homo sapiens, UniProt P37231); format: functional;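 also: agonist potency as compounds enhance coactivator SRC-1 recruitment to PPARgamma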
Sequence of Peroxisome proliferator-activated receptor gamma/Nuclear receptor coactivator 1 (P37231 whole entry): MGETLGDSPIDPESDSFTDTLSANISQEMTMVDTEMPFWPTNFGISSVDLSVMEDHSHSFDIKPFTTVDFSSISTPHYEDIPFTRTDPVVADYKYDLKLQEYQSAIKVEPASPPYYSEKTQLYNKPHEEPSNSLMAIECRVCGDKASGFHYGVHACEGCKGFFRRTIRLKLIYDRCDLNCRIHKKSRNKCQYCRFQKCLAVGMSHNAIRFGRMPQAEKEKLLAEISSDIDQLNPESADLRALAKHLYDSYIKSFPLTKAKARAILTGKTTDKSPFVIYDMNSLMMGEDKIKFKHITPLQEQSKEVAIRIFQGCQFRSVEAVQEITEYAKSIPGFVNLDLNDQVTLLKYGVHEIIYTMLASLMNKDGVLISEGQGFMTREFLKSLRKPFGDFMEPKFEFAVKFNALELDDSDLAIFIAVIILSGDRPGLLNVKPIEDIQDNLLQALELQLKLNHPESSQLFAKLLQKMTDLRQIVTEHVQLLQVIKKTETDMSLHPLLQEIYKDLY
Sequence of Peroxisome proliferator-activated receptor gamma/Nuclear receptor coactivator 1 (Q15788 whole entry, further chain): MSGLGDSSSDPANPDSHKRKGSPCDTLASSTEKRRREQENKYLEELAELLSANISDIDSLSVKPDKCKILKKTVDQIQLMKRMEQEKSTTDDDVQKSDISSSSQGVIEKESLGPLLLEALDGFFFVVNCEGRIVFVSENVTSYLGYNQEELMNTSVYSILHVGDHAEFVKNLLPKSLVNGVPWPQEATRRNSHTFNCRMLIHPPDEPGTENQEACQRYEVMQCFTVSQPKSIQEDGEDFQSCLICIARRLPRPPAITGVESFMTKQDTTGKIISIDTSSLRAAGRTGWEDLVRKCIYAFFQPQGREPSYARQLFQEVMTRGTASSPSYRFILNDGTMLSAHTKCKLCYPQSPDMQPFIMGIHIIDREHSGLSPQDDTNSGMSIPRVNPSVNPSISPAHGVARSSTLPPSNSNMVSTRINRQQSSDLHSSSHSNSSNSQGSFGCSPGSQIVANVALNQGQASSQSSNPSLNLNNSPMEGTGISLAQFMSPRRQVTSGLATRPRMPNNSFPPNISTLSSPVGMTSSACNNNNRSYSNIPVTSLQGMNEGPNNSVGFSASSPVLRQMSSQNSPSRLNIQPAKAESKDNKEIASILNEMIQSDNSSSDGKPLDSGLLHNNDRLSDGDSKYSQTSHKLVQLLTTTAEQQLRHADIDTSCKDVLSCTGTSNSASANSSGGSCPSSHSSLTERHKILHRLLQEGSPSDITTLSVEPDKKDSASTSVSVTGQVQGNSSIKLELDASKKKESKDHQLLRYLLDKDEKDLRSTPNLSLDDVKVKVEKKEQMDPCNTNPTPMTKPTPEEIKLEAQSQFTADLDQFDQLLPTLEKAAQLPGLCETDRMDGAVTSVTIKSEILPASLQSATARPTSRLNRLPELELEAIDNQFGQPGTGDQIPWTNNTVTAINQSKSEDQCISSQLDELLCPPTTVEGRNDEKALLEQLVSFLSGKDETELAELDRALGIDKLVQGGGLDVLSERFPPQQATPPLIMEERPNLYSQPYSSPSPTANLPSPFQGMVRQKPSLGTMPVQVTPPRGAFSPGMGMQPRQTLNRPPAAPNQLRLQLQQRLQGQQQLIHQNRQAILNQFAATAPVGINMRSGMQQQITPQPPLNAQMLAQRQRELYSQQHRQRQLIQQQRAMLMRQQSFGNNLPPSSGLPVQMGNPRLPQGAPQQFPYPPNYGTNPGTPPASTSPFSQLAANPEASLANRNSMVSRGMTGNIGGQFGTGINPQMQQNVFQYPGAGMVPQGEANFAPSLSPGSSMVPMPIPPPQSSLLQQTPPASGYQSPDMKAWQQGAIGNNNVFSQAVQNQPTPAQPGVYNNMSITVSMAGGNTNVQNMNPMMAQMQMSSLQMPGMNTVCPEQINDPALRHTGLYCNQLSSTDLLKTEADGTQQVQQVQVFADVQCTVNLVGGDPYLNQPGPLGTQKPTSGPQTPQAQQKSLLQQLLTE

[8] = target: Peroxisome proliferator-activated receptor gamma/Nuclear receptor coactivator 3 (Homo sapiens, UniProt P37231); format: functional;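 also: agonist potency for raising coactivator recruitment to the receptor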
[9] = NIH-3T3 fibroblast cytotoxicity, dose response, cytotoxicity control, cell-based, fluorescence, Alamar Blue, secondary assay (AID 2327); format: functional;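 also: NIH-3T3 mouse fibroblasts cultured with fluconazole at 8 µg/mL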
[10] = C. albicans growth with fluconazole, confirmation, fluorescence, retest (AID 2467); format: functional, cell-based
Nonstructural protein 1 = Nonstructural protein 1 (Influenza A virus, UniProt Q194T2); format: functional, Influenza A virus (A/California/07/2009(H1N1))
Sequence of Nonstructural protein 1 (Q194T2 whole entry): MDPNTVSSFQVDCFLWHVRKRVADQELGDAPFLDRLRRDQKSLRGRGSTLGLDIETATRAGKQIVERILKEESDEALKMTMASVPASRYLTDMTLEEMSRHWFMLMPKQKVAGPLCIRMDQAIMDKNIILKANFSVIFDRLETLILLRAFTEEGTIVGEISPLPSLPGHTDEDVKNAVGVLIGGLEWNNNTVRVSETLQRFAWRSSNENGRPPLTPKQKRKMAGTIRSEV

[11] = target: T2, Microphthalmia-associated transcription factor (Homo sapiens, UniProt O75030); assay: TRPM1 promoter luciferase signal decrease, dose response, MITF inhibitor project, cell-based, SK-MEL-5, cherry-picked, set 3 (AID 493073); format: functional
T2 sequence (O75030 whole entry): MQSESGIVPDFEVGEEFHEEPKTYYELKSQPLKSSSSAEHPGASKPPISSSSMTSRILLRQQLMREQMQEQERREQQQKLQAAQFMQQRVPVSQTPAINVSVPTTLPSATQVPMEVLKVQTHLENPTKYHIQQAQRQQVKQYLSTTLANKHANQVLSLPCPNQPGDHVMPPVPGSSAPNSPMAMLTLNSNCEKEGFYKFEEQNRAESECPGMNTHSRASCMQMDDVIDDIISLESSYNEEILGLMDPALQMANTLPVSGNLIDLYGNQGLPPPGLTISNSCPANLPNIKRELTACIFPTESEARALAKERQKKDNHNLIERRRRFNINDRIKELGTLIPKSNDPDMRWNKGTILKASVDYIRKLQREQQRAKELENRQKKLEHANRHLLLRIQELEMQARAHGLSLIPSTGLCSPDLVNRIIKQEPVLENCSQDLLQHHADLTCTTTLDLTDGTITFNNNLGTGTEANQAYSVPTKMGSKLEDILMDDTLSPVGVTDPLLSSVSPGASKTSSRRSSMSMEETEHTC

INS1 = assay: beta cell apoptosis inhibitors, cytokine rescue, dose response, luminescence, retest (AID 449756); format: functional, cell-based; conditions: Rattus norvegicus;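 also: cell death triggered by IL-1 beta plus TNF-alpha plus IFN-gamma mixture; protective hits raise ATP signal compared with cytokine alone wells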
[12] = target: T3, Heat shock factor protein 1 (Mus musculus, UniProt P38532); assay: HSF1 potentiators in luciferase reporter cells, confirmation, cell-based, NIH3T3, luminescence, dose retest (AID 435004); format: functional;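 also: stress induced by proteasome inhibitor MG132 added 30 min after compound; luciferase reporter driven by HSF1 response element in NIH3T3 cells; actives raise luminescence as potentiators of the MG132 stress response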
T3 sequence (P38532 whole entry): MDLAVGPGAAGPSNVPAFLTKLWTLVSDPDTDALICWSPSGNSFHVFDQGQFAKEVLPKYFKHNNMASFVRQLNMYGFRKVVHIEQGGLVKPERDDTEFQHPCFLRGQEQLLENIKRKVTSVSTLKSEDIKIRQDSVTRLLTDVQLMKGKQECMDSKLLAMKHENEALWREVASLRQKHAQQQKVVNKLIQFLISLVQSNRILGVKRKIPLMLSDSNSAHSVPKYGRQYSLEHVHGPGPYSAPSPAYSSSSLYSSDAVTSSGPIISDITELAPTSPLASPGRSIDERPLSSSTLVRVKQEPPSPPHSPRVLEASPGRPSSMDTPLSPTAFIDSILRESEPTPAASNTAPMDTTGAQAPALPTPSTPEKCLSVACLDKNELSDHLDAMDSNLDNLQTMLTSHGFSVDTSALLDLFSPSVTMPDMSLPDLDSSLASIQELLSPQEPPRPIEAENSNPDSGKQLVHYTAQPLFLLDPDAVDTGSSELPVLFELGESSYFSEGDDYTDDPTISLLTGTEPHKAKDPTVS

[13] = target: T4, Histone-lysine N-methyltransferase NSD2 (Homo sapiens, UniProt O96028); format: biochemical
T4 sequence (O96028 whole entry): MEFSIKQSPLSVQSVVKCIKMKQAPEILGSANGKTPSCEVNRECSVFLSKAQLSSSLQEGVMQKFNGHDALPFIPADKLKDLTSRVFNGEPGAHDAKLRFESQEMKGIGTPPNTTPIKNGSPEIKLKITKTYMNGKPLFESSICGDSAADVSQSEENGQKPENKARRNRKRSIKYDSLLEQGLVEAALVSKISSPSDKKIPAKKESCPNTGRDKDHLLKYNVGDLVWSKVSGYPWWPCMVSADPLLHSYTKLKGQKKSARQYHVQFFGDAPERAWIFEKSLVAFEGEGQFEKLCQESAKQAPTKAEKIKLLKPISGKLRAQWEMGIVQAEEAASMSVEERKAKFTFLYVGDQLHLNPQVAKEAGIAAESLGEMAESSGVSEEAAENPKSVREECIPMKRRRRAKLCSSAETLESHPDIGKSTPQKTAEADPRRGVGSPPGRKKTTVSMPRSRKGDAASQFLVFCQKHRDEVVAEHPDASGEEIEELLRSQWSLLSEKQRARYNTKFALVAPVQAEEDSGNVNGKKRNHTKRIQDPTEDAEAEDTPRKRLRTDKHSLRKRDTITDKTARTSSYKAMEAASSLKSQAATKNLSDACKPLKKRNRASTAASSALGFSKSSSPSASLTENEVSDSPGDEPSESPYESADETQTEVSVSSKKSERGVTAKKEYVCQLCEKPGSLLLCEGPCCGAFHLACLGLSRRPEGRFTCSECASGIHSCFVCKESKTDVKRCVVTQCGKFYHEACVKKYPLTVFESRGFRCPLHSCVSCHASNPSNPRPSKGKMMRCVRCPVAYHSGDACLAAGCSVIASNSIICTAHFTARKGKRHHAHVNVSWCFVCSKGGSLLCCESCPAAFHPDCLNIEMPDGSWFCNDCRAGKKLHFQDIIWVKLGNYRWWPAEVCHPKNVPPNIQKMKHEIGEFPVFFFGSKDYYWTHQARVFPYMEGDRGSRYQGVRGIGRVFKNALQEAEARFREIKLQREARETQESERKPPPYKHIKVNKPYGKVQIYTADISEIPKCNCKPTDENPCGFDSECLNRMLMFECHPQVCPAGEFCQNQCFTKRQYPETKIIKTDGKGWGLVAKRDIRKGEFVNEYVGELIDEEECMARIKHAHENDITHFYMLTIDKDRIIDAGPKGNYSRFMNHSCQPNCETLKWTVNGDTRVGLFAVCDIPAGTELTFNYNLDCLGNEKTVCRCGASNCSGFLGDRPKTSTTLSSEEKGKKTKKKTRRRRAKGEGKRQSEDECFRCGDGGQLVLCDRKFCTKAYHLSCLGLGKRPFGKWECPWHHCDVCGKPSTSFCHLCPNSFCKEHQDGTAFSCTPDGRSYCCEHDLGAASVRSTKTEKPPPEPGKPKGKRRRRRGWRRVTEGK

[14] = target: T5, Ubiquitin-conjugating enzyme E2 N (Homo sapiens, UniProt P61088); format: functional;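 also: Dose-response confirmation in a TR-FRET assay detecting UBC13-driven polyubiquitin chain formation, inhibition measured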
T5 sequence (P61088 whole entry): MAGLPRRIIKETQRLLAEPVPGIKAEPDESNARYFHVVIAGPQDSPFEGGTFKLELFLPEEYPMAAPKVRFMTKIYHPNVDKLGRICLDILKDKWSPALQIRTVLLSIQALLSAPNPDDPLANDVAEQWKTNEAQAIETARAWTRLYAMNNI

[15] = inhibitors of intracellular T. cruzi replication, confirmation, NIH3T3 host cells, beta-gal luminescence (AID 2044); format: functional, cell-based;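 also: intracellular parasites grown in NIH/3T3 mouse fibroblasts as host cells; luminescent beta-galactosidase reporter signal from transgenic T. cruzi replicating inside host cells; inhibitors lower the luminescence signal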
[16] = cytotoxicity toward NIH3T3 fibroblasts, dose response, counter-screen, cell-based, ATP luminescence, mouse fibroblasts (AID 2010); format: functional;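 also: cells exposed to compound for about 90 hours before reading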
P388/ADR = assay: cells; format: functional; conditions: Mus musculus
SN12K1 = assay: cells; format: functional; conditions: Homo sapiens
P388 = assay: cells; format: functional; conditions: Mus musculus

## Cc1ccc([N+](=O)[O-])cc1NC(=O)CN(C(=O)c1ccc(Cl)cc1)C1CCCCC1
[1]
  EC50: 43.7 µM (active)
[2]
  EC50: 209 µM (active)
Fatty acid synthase [3]
  IC50: 1.18 µM (active)
Fatty acid synthase [4]
  IC50: 1.24 µM (active)

## O=C(NCCOc1ccccc1)c1ccc2c(c1)OCO2
HEK293
  AC50: 1.62 µM (active)

## O=C(O)c1cc(NS(=O)(=O)c2cc([N+](=O)[O-])ccc2Cl)ccc1O
[5]
  IC50: > 100 µM (not active)

## CC[C@]1(c2cccc(C)c2)C(=O)N(C(=O)OC)N1C(=O)OC
Fatty acid synthase [3]
  IC50: 9.04 µM (active)
Fatty acid synthase [4]
  IC50: 8.6 µM (active)

## CC(C)(C)SCCNC(=O)/C=C/c1cccc([N+](=O)[O-])c1
Fatty acid synthase [3]
  IC50: 4.09 µM (active)
Fatty acid synthase [4]
  IC50: 6.29 µM (active)

## Cc1n[nH]c(C)c1S(=O)(=O)N(CC(=O)Nc1ccc2c(c1)OCCO2)c1ccc(C(C)C)cc1
[6]
  EC50: > 79.4 µM (not active)
[7]
  EC50: > 79.4 µM (not active)
[8]
  EC50: > 79.4 µM (not active)

## CCN(CC)S(=O)(=O)c1cccc(NC(=O)COC(=O)c2nnc(O)c3ccccc23)c1
[6]
  EC50: > 79.4 µM (not active)
[7]
  EC50: > 79.4 µM (not active)
[8]
  EC50: > 79.4 µM (not active)

## CC(=O)Nc1ccc(NC(=O)c2ccccc2S(=O)(=O)c2ccc([N+](=O)[O-])cc2)cc1
Fatty acid synthase [3]
  IC50: 13.8 µM (active)
Fatty acid synthase [4]
  IC50: 15.9 µM (active)

## O=C(c1cnc(-c2ccc(Cl)cc2)s1)c1ccc(Cl)cc1Cl
[6]
  EC50: 18.7 µM (not active)
[7]
  EC50: 30.8 µM (not active)
[8]
  EC50: 38.7 µM (not active)

## COc1cc(C(=O)Oc2c(CN3CCOCC3)cc(Cl)c3cccnc23)cc(OC)c1OC
[9]
  EC50: > 160 µM (inactive)
[10]
  EC50: 4.15 µM (active)
[1]
  EC50: 2.71 µM (active)
[2]
  EC50: 2.31 µM (active)
Nonstructural protein 1
  IC50: 19.9 µM (active)
[11]
  AC50: 7.55 µM (active)
INS1
  AC50: 4.28 µM (active)

## O=C(NCCCCc1ccccc1)C1CC(c2cccc([N+](=O)[O-])c2)=NO1 (stereo not drawn)
Fatty acid synthase [3]
  IC50: 3.11 µM (active)
Fatty acid synthase [4]
  IC50: 4.27 µM (active)

## CSc1ccccc1C(=O)N1CCC2(CC1)CC(=O)c1ccccc1O2
HEK293
  AC50: 22.5 µM (active)

## COC(=O)c1ccc(C(=O)OC)c(NC(=O)C(C)(C)C)c1
[6]
  EC50: > 79.4 µM (not active)
[7]
  EC50: > 79.4 µM (not active)
[8]
  EC50: > 79.4 µM (not active)
[12]
  EC50: > 260 µM (inactive)

## CCN1CC2CCCC3(C1)C(=O)NC1(CCCCC1)N=C23 (stereo not drawn)
[13]
  AC50: 15 µM (active)

## COC(=O)c1c(NC(=O)C(=O)N2CCCC2)sc2c1CC(C)(C)OC2
[14]
  IC50: > 20 µM (inactive)

## NCCc1c(-c2ccccc2)n(-c2ccccc2)c2ccccc12
[15]
  EC50: 2.47 µM (active)
[16]
  EC50: > 60 µM (inconclusive)
[13]
  AC50: > 20 µM (inactive)

## Cc1c2ccncc2cc2c1[nH]c1ccccc12
P388/ADR
  GI50: 2.93 µM (inactive)
SN12K1
  GI50: 3.72 µM (inactive)
P388
  GI50: 1.61 µM (inactive)

## CCOc1ccc(/C=N/Nc2cc(N3CCOCC3)ncn2)c(O)c1
HEK293
  AC50: 15.5 µM (active)

## Cc1c2ccnc(C(N)=O)c2c(C)c2c1[nH]c1ccccc12
P388/ADR
  GI50: 12.9 µM (inactive)
SN12K1
  GI50: 5.46 µM (inactive)
P388
  GI50: 2.9 µM (inactive)

## CCCCCCCCCCCCCCCCCCOCC(COCCOCC[N+]1(CCCCCC(=O)[O-])CCCC1)Oc1ncccn1 (stereo not drawn)
P388/ADR
  GI50: 11.2 µM (inactive)
SN12K1
  GI50: 4.12 µM (inactive)
P388
  GI50: 0.288 µM (active)

## COC1OC(=O)[C@H]2O[N+]([O-])=C(C)[C@@H]12 (stereo partly drawn)
P388/ADR
  GI50: > 100 µM (inactive)
SN12K1
  GI50: > 100 µM (inactive)
P388
  GI50: > 100 µM (inactive)

## NC1CCCCC1.O=P(O)(O)C(CSc1ccccc1)P(=O)(O)O
P388/ADR
  GI50: > 100 µM (inactive)
SN12K1
  GI50: > 100 µM (inactive)
P388
  GI50: > 100 µM (inactive)

## COc1ccc(C2COc3cc(O)c(O)cc3C2)cc1 (stereo not drawn)
P388/ADR
  GI50: 1.19 µM (inactive)
SN12K1
  GI50: 13.8 µM (inactive)
P388
  GI50: 1.67 µM (inactive)

## CC(C)(C)OC(=O)[C@H](CCCCN)NC(=O)c1[nH]cnc1C(=O)N[C@@H](Cc1ccccc1)C(=O)OCc1ccccc1
[14]
  IC50: > 20 µM (inactive)

## CCn1c2ccccc2c2cc(/C=N/NC(=O)c3ccncc3)ccc21
HEK293
  AC50: 1.46 µM (active)

## COc1cc([N+](=O)[O-])ccc1S(=O)(=O)Nc1cccnc1
[5]
  IC50: > 100 µM (not active)

## CCCCOc1ccc(NC2=NC3(CCCC3)N=C(N)N2)cc1
[6]
  EC50: > 79.4 µM (not active)
[7]
  EC50: > 79.4 µM (not active)
[8]
  EC50: > 79.4 µM (not active)

## C/C(=C\COc1ccc2ccc(=O)oc2c1)C1=CC(=O)C(C)(C)O1 [GEIPARVARIN]
P388/ADR
  GI50: 1.44 µM (inactive)
SN12K1
  GI50: 3.76 µM (inactive)
P388
  GI50: 1.9 µM (inactive)
